Literature values as cited in patent publication US20100093842A1, “Laulimalide Analogs and Uses Thereof” (EISAI CO. LTD., priority 2003, published 2010).

Legend:
tubulin = details: low micromolar concentrations; compared with equivalent concentrations of Laulimalide
[1] = tested on: multi-drug resistant (MDR) cell lines that over express the P-glycoprotein pump (P-gp); details: cell lines over expressing P-gp

SMILES	rate of polymerization (tubulin)	tubulin polymer formed (tubulin)	in vitro anti-mitotic activity (several cancer lines; in vitro)	cytotoxic activity (several cancer lines; several cancer lines)	activity against multi-drug resistant (MDR) cell lines [1]
CC(=O)O[C@H]1C(=O)[C@@]2(C)[C@H]([C@H](OC(=O)c3ccccc3)[C@]3(O)C[C@H](OC(=O)[C@H](O)[C@@H](NC(=O)c4ccccc4)c4ccccc4)C(C)=C1C3(C)C)[C@]1(OC(C)=O)CO[C@@H]1C[C@@H]2O [Paclitaxel]	faster	more tubulin polymer was formed	–	–	–
C=C1C[C@H](C)C[C@@H]2CC=C[C@@H](C/C=C\C(=O)O[C@H]([C@@H](O)/C=C/[C@@H]3CC(C)=CCO3)C[C@@H]3O[C@H]3[C@@H](O)C1)O2 [Laulimalide]	–	–	5 to 12 nM	potent cytotoxic activity	show activity against multi-drug resistant (MDR) cell lines
